# Experimental data taken from patent US20170367394A1, “PROCESS FOR INCREASING THE STABILITY OF A COMPOSITION COMPRISING POLYUNSATURATED OMEGA-6 FATTY ACIDS” (Evonik Degussa GmbH, priority 2014, published 2017).
# Tests used:
# Type in all cases: physicochemical
# [1] = Peroxide Value (PV, primary oxidation products) according to Ph. Eur. 2.5.5, before and after storage at 50° C. exposed to air
# Description: An exemplary procedure for determining the Peroxide Value (PV) of a sample is performed as follows:
# Peroxide value=(S−B)*N thiosulfate*1000/weight of sample
# (§1) Primary oxidation products (hydroperoxides at double bonds) were quantified by determining the Peroxide Value (PV) according to Ph. Eur. 2.5.5 (01/2008:20505). Secondary oxidation products (carbonyl compounds) were quantified by determining the Anisidine Value (AV) according to Ph. Eur. 2.5.36 (01/2008:20536).
# (§2) 30 g each of the liquid ethyl arachidonic acid glycerin ester and the gamma-linolenic acid ethyl ester used in experiments 1 and 2 as well as of the arachidonic acids and the gamma-linolenic acid obtained in experiments 1 and 2 were filled into 500 ml Schott Duran glass bottles.
# (§3) About 30 g each of the solid lysine-salts ARA-Lys and GLA-Lys obtained in experiments 3 and 4 were filled Schott Duran glass bottles.
# (§4) All of the bottles were placed together with opened lids in a drying oven with an opened ventilation valve at 50° C. and stored in the dark under these conditions for 81 days.
# [2] = Anisidine Value (AV, secondary oxidation products) according to Ph. Eur. 2.5.36, before and after storage at 50° C. exposed to air; settings: for Anisidine Value: as obtained / as supplied (experiments 1-4)
# Description: An exemplary procedure for determining the Anisidine Value (AV) of a sample is performed as follows:
# The anisidine value is defined as 100 times the optical density measured in a 1 cm cell of a solution containing 1 g of the substance to be examined in 100 ml of a mixture of solvents and reagents according to the following method. Carry out the operations as rapidly as possible, avoiding exposure to actinic light.
# Test solution (a): Dissolve 0.500 g of the substance to be examined in trimethylpentane and dilute to 25.0 ml with the same solvent.
# Test solution (b): To 5.0 ml of test solution (a) add 1.0 ml of a 2.5 g/I solution of p-anisidine in glacial acetic acid, shake and store protected from light.
# Reference solution: To 5.0 ml of trimethylpentane add 1.0 ml of a 2.5 g/I solution of p-anisidine in glacial acetic acid, shake and store protected from light. Measure the absorbance of test solution (a) at the maximum at 350 nm using trimethylpentane as the compensation liquid. Measure the absorbance of test solution (b) at 350 nm exactly 10 min after its preparation, using the reference solution as the compensation liquid. Calculate the anisidine value (AV) from the expression:
# as §1, §2, §3, §4
# [3] = Oligomer content by gel-chromatography (GPC, RI detector); settings: as obtained
# Description: Oligomeric PUFA constituents as well as their derivatives (collectively referred to as oligomer content) were quantified by gel-chromatographic means (GPC, styroldivinylbenzene-phase with tetrahydrofuran containing trifluoroacetic acid used as eluent). A refractive index (RI) detector was used for detection. Due to the fact that specific response factors of the constituents of the samples were unknown, proportions were calculated based upon fractional proportions of the total area of chromatograms.
# [4] = t = 81 days, open bottles, 50° C., exposed to air, in the dark
Compound,Peroxide Value ([1]; as obtained (experiments 1-4)),"Peroxide Value (PV) ([1]; t = 0, before storage)","Peroxide Value (PV) [1, 4]",Anisidine Value [2],"Anisidine Value (AV) ([2]; t = 0, before storage)","Anisidine Value (AV) [2, 4]",Oligomer content [3],Peroxide Value ([1]; commercially available starting material as supplied)
Gamma-Linolenic acid-L-Lysine Salt [GLA-Lys],1.0 mmol/kg,1.0 mmol/kg,<1 mmol/kg,5.4,5.4 A/g,<1 A/g,0.6 area-%,
Arachidonic acid-L-Lysine Salt [ARA-Lys],< 1 mmol/kg,<1 mmol/kg,<1 mmol/kg,1,1 A/g,<1 A/g,1.1 area-%,
"CCCCC/C=C\C/C=C\C/C=C\CCCCC(=O)O [GLA-OH, gamma-linolenic acid]",5.6 mmol/kg,5.6 mmol/kg,1.3 mmol/kg,7.6,7.6 A/g,137 A/g,0.3 area-%,
"CCCCC/C=C\C/C=C\C/C=C\C/C=C\CCCC(=O)O [ARA-OH, all-cis-5,8,11,14-eicosatetraenoic acid]",7.2 mmol/kg,7.2 mmol/kg,5.8 mmol/kg,4.2,4.2 A/g,211 A/g,,
"CCCCC/C=C\C/C=C\C/C=C\CCCCC(=O)OCC [GLA-OEt, gamma-linolenic acid ethyl ester]",,52.1 mmol/kg,86.3 mmol/kg,19.1,19.1 A/g,1237 A/g,,52.1 mmol/kg
